How the values were obtained:
[1] = system: PAI-1 expression; assay: TGF-β1-induced PAI-1 expression, Northern blot, Mv1Lu cells; assay type: cell-based, mink; conditions: Mv1Lu cells
Description: (A, B, C, D, E, F) Cells were treated with 50 μg/ml cholesterol (A, B, C, D) and 50 μg/ml LDL (D) at 37° C. for 1 hr or with 1 μM fluvastatin or lovastatin (E) or several concentrations of fluvastatin (F) at 37° C. for 16 hr and then further incubated with increasing concentrations (as indicated) of TGF-β1 (A, B, C, E) or 50 pM TGF-β1 (D,F) for 2 hr. Northern blot analysis of PAI-1 and G3PDH was performed. A representative of a total of three analyses is shown (a). The relative intensities of the transcripts were quantified with a PhosphoImager. The ratio of the relative intensities of PAI-1 and G3PDH transcripts in cells treated without TGF-β1 and cholesterol, LDL or statins on the blot was taken as 1 fold or 100% of PAI-1 expression. The quantitative data from three independent analyses is shown (b). […] (G) Mv1Lu cells stably expressing a luciferase reporter gene driven by the PAI-1 promoter (MLECs-clone 32) were treated with increasing concentrations (as indicated) of cholesterol at 37 EC for 1 hr (a) or with 1 μM lovastatin at 37° C. for 16 hr (b) and then further incubated with 50 pM TGF-β for 7 hr. The luciferase activity in cells treated without cholesterol was taken as 100% (a). […] (H) Cells were incubated with 0.0625 and 0.125 pM TGF-β1 in the presence of increasing concentrations of cholesterol, as indicated. […] The experiments were carried out in triplicate.

[2] = system: TβR-I and TβR-II; assay: 125I-TGF-β1 affinity labeling, CHO-K1 cells; assay type: cell-based, Chinese hamster; conditions: 1 μM, 37° C. 16 hr, 0.12 untreated
Description: (§1) (A, B, C, D, E, F) Cells were treated with LDL (50 μg protein/ml), VLDL (5 μg protein/ml), HDL (50 μg protein/ml), lipoprotein (a) (10 μg/ml), fluvastatin (F; 1 μM), lovastatin (L; 1 μM), nystatin (Nys; 25 μg/ml), β-CD (β-CD; 8 mM), cholest-4-en-3-one (3-one; 50 μg/ml) or cholesterol (Chol; 50 μg/ml) alone or combination of two. After 1 hr at 37° C. or 16 hr at 37° C. (for fluvastatin and lovastatin), ^125I-TGF-β1 affinity labeling of cell-surface TGF-β receptors was performed at 0° C. ^125I-TGF-β1 affinity-labeled TβR-I and TβR-II were analyzed by 7.5% SDS-PAGE and autoradiography. The relative intensities of TβR-I and TβR-II were quantified with a PhosphoImager. The ratio of ^125I-TGF-β1 binding to TβR-II and TβR-I were estimated. The numbers above the lane sequence denote the ratio of TβR-II/TβR-I.
After cross-linking, cell lysates were analyzed by 7.5% SDS-PAGE and autoradiography or quantified by a PhosphoImager. For all experiments, cholesterol or cholesterol derivatives were prepared as the stock solution with a concentration of 25 mg/ml in ethanol. The final concentration of ethanol in the medium was 0.2% (by vol.). […]

[3] = system: TβR-I and TβR-II; assay: Western blot of TβR-I and TβR-II protein levels, Mv1Lu cells; assay type: cell-based, mink; conditions: 37° C. for 16 hr; versus cholesterol-treated and control cells
Description: Cells grown to near confluence on 12-well cluster dishes were treated with cholesterol or LDL in serum-free DMEM (vol.=0.5 ml/well) at 37° C. for 1 hr. The treated cells were further incubated with 50 or 100 pM TGF-β1 at 37° C. for 30 min (for determining Smad2 phosphorylation) or for 2 hr (for determining TβR-II). Treated cells were lysed and cell lysates were analyzed by 7.5% SDS-PAGE and Western blot analysis using anti-Smad2, anti-P-Smad2, anti-caveolin-1, anti-TβR-I (alk5) or anti-TβR-II antibodies as described previously (30). The antigens on the blots were visualized by using horseradish peroxidase-conjugated anti-rabbit IgG antibody and the ECL system as described (30).
To determine if cholesterol suppresses TGF-β responsiveness by decreasing the ratio of TGF-β1 binding to TβR-II and TβR-I, we first determined the time course of the effect of cholesterol treatment on the ratio of ^125I-TGF-β1 binding to TβR-II and TβR-I in Mv1Lu cells. These cells were treated with 50 μg/ml cholesterol at 37° C. for several time periods. ^125I-TGF-β1 binding to TGF-β receptors was then determined by affinity labeling using the bifunctional cross-linking agent DSS (disuccinimidyl suberate) followed by 7.5% SDS-PAGE and autoradiography or quantified with a PhosphoImager. […] We then performed analysis of the effect of cholesterol treatment on TGF-β1 binding to TβR-I and TβR-II in several cell types. Mv1Lu, BAEC, and NRK cells were treated for 1 hr with increasing concentrations of cholesterol in the presence and absence of 0.2% β-cyclodextrin (β-CD, which forms water-soluble complexes with cholesterol) at 37° C. The binding of TGF-β1 to TβR-I and TβR-II in these cells was then determined by ^125I-TGF-β1 affinity labeling at 0° C.

[4] = system: TβR-I and TβR-II; assay: 125I-TGF-β1 affinity labeling, Mv1Lu cells; assay type: cell-based, mink; conditions: 1 μM, 37° C. 16 hr; Mv1Lu cells; 0.88 untreated
Description: (A) Mv1Lu cells were treated with 50 μg/ml cholesterol at 37° C. After several time periods, as indicated, ^125I-TGF-β1-affinity labeling was performed at 0° C. ^125I-TGF-β1 affinity-labeled TGF-β receptors were analyzed by 7.5% SDS-PAGE and autoradiography (a) and quantified with a PhosphoImager. The bracket indicates the locations of ^125I-TGF-β1 affinity-labeled TβR-I and TβR-II. The ratio of ^125I-TGF-β1 binding to TβR-II and TβR-I is plotted against incubation time (b).
(§2) (B, C, D, E) Cells were treated with increasing concentrations of cholesterol in the presence (C) and absence (B, D, E) of 0.2% β-CD, as indicated. After 1 hr at 37° C., ^125I-TGF-β1 affinity labeling of TβR-I and TβR-II in cells was performed at 0° C. ^125I-TGF-β1 affinity-labeled TβR-I and TβR-II were analyzed by 7.5% SDS-PAGE and autoradiography or quantified with a PhosphoImager. A representative of a total of three analyses is shown (top). The bracket indicates the locations of ^125I-TGF-β affinity-labeled TβR-I and TβR-II. The relative intensities of ^125I-TGF-β1 affinity-labeled TβR-I and TβR-II in cells treated without cholesterol were taken as 100%. The quantitative data from three analyses is shown (bottom).
The bracket indicates the locations of ^125I-TGF-β1 affinity-labeled TβR-I and TβR-II. The relative intensities of ^125I-TGF-β1-TβR-I and ^125I-TGF-β1-TβR-II complexes, which were quantified with a PhosphoImager, are plotted against TGF-β1 concentrations (bottom).
as §1
(G) Mv1Lu cells were treated with 50 μg/ml of cholesterol and cholesterol analogs/derivatives including 25-hydroxycholesterol, 7-dehydrocholesterol (7-DHC), 7-ketocholesterol, 7β, 8β-epoxycholesterol, 7β-hydroxycholesterol, and oxidized 7-dehydrocholesterol (oxy-7DHC). After 1 hr at 37° C., ^125I-TGF-β1 affinity labeling of TGF-β receptors was performed. ^125I-TGF-β1 affinity-labeled TβR-I and TβR-II were analyzed by 7.5% SDS-PAGE and autoradiography. The bracket indicates the locations of ^125I-TGF-β1-affinity-labeled TβR-I and TβR-II. The relative intensities of ^125I-TGF-β1 affinity-labeled TβR-I and TβR-II were determined by a PhosphoImager. The ratios of ^125I-TGF-β1 binding to TβR-II and TβR-I were estimated. The numbers above the lane sequence denote the ratio of TβR-II/TβR-I.
(§3) After cross-linking, cell lysates were analyzed by 7.5% SDS-PAGE and autoradiography or quantified by a PhosphoImager. For all experiments, cholesterol or cholesterol derivatives were prepared as the stock solution with a concentration of 25 mg/ml in ethanol. The final concentration of ethanol in the medium was 0.2% (by vol.).

[5] = system: TβR-I and TβR-II; assay: 125I-TGF-β1 affinity labeling, BAEC; assay type: cell-based, bovine; conditions: 1 μM, 37° C. 16 hr; BAEC cells; 2.47 untreated
Description: as §2, §1, §3

EC50 ([1]; stimulated by 50 pM TGF-β1, read-out: EC50 of enhancement of PAI-1 expression): 500 nM
SMILES: CC(C)n1c(/C=C/C(O)CC(O)CC(=O)O)c(-c2ccc(F)cc2)c2ccccc21 (stereo not drawn) [fluvastatin, reference compound]
enhancement of PAI-1 expression ([1]; 1 μM, 16 hr, 10 pM TGF-β1): 3 fold
ratio of TβR-II/TβR-I [2]: 0.19
increase of the total amount of TβR-II [3]: ~1.5 fold
ratio of TβR-II/TβR-I [4]: 1.3
ratio of TβR-II/TβR-I [5]: 2.91
